Assay results published in patent publication US20240343835A1, “COVALENT HETEROBIVALENT ANTIBODY INHIBITORS AND LIGANDS” (UNIVERSITY OF NOTRE DAME DU LAC, priority 2015, published 2024).
Ends that are not written are not given here.

What was measured:
[1] = biological target: nucleotide binding site (NBS) of IgEs; assay: Fluorescence quenching binding of NBS ligand; details: monovalent affinity
IgE^dansyl = assay: Fluorescence quenching binding of dansyl molecules to IgE^dansyl; details: dissociation constants for hapten-Napht conjugates
Protocol: To determine binding of HBI molecules to respective antibodies, we observed the quenching of tryptophan resides using a method previously described (Junutula JR, et al., Nat. Biotechnol. 2008; 26 (8): 925-932). Briefly, either IgE^dansyl or IgG^Penicillin was diluted into a non-binding 96-well dish at 40 nM in PBS. Then, HBI molecules which contained either a dansyl or DNP group were titrated into well and fluorescence (Ex. 280 nm, Em. 335) was observed using a SpectraMax M2 spectrophotometer. PBS and free tryptamine diluted to similar initial fluorescence values were used as controls to account for HBI fluorescence and non-specific quenching respectively.

trastuzumab [2] = assay: Fluorescence quenching assay with trastuzumab; type: binding; details: for Kd: fluorescence quenching, DNP-tagged ligands
Protocol: The binding constants (Kd) of monovalent ABS (trastuzumab binding peptide), NBS (naphthalene), and heterobivalent ligand (trast-napht) were determined using fluorescence quenching assay as previously described (Handlogten MW, et al., Chem Biol. 2011; 18 (9): 1179-1188). Briefly, ligands were titrated into trastuzumab (30 nM) as well as PBS and Indole-3-butyric acid (IBA) to exclude the effect of nonspecific interactions between DNP and tryptophan. Since DNP absorbs light at 335 nm and tryptophan emits light at 335 nm, the fluorescence of tryptophan is quenched by DNP. The fluorescence of tryptophan was read by SpectraMax M5 plate reader (Molecular Devices) at λex=280 nm and λem=335 nm with various concentrations of ligands. The fluorescence signals dropped upon titration of ligands and apparent binding constants were calculated using a Hill's curve fit in OriginPro 2015.

trastuzumab [3] = assay: Direct ELISA for selective binding of cHBL to trastuzumab; details: 8 hours, 37° C., pH 7.4
Protocol: ELISA was used to confirm selective binding of trast-cHBL to trastuzumab. […] FITC also reacted with trastuzumab at the same conditions except for pH; they were incubated in either PBS or carbonate-bicarbonate buffer. Trastuzumab without any covalent ligands was used as a negative control (pH 7.4). After an 8-hour reaction, all molecules were purified using Amicon Ultra-0.5 mL Centrifugal Filters to remove the unbound covalent ligands. Concentration of trastuzumab was determined by SpectraMax M5 plate reader. For ELISA, 96 well high-binding assay plate was coated with trastuzumab (0.5 nM in carbonate-bicarbonate buffer) overnight at 4° C. refrigerator. The next morning, the wells were washed with a washing buffer (0.05% Tween 20 in PBS) using AquaMax 2000 plate automatic washer (Molecular Devices) to remove unbound trastuzumab and blocked with blocking buffer (5% (w/v) BSA and 0.1% (v/v) Tween 20 in PBS) for 1 hour at room temperature. After 1 hour, the wells were washed and then incubated with goat anti-FITC IgG-HRP conjugate (1:20,000 in blocking buffer) for 1 hour. Amplex Red Hydrogen Peroxide/Peroxidase Assay kit was used to initiate enzymatic reaction and the fluorescence (λex=570 nm and λem=592 nm) was read by SpectraMax M5 plate reader.

trastuzumab [4] = assay: Western blot of ITC covalent conjugation to trastuzumab chains; type: biochemical; details: reducing gel
Protocol: ITC conjugation to active lysine on either light chain […] proximal to NBS was confirmed by western blot as previously described (Alves NJ, et al., Langmuir. 2012; 28 (25): 9640-9648). The samples (20 nM in 1×SDS reducing buffer) were run on a 10% SDS-PAGE gel at 110 V for 50 min in the presence of a Tris-glycine running buffer. The samples were then transferred to a nitrocellulose membrane (Bio-Rad) at 90 V for 90 min in a 20% methanol transfer buffer. The membrane was blocked with a blocking buffer (5% (w/v) non-fat dry milk in Tris buffered Saline with 0.05% Tween 20 (TBS-T)) for 1 hour. After 1 hour, the membrane was washed once with TBS-T and followed by incubation with HRP-conjugated goat anti-FITC IgG (1:20,000 in blocking buffer) for 45 min. The membrane was washed with 3×TBS-T for 10 min to remove the unbound secondary detection antibodies and subsequently incubated with chemiluminescent HRP substrate for 5 min to detect the location at which lysine on either heavy or light chain is conjugated to cHBL molecules. A second SDS-PAGE gel was run concurrently and stained in Commassie blue staining solution (0.15% Coomassie R-250 (EMD chemicals), 10% acetic acid and 20% methanol in DI water) and destained in destaining solution (10% acetic acid, methanol, and 80% DI water) to confirm that all the proteins were transferred to the membrane. […]

NBS of trastuzumab = assay: Competitive ELISA of naphthalene-biotin binding to the NBS; details: 2 and 10 μM, p<0.01
Protocol: The specificity of naphthalene to NBS of IgG was confirmed using UV photo-cross-linking method and competitive sandwich ELISA. The wells of high binding plate were coated with goat-derived anti-human IgGs (1 nM in carbonate-bicarbonate buffer) overnight at 4° C. Trastuzumab (100 nM in PBS) prepared for ELISA described above was incubated with naphthalene-EG11-biotin (25 μM in PBS) for 1 hour at room temperature. PBS with only naphthalene-EG11-biotin was used as a negative control to normalize the binding curve. After 1 hour incubation, the molecules were exposed to UV light (1 J/cm^2) in a Spectroline UV select Series Cross-linker (Spectronics) to induce covalent photo-cross-linking of naphthalene to unbound NBS. The molecules were spun and 2 nM of the molecules were prepared in the blocking buffer. The wells coated with goat anti-human IgGs were washed and blocked with the blocking buffer for 1 hour. The wells were washed followed by incubation with the UV photo-cross-linked trastuzumab (2 nM) for 1 hour. […] An Amplex red assay kit was used to detect the fluorescence signals from the specific binding of naphthalene to NBS induced by UV photo-cross-linking. Since cHBL contains naphthalene, blocked NBS of trastuzumab is expected not to be photo-cross-linked to naphthalene-EGn-biotin, leading to relatively lower signals of fluorescence in the presence of cHBL.

[5] = system: HER2/neu receptor on BT474 cells; assay: Cellular binding assay by flow cytometry with cHBL-tagged trastuzumab; type: cell-based
Protocol: Inhibition of trastuzumab by binding of trast-cHBL was confirmed by cellular binding assay with HER2-overexpressed breast and ovarian cancer cell lines (BT474 and SKOV3) using a Guava EasyCyte 8HT flow cytometer (Millipore). 0.5 mL of 50000 cells/mL were cultured on 2-well tissue culture plates overnight. The plate was kept on ice for 30 min to avoid receptor internalization. The wells were washed with a blocking buffer (1.5% BSA in PBS) and incubated with trastuzumab that had been previously incubated with trast-cHBL at various concentrations in the same fashion as the ELISA experiments for 1 hour on ice. The wells were washed once and incubated with Alexa Fluor 647-conjugated goat anti-human IgG (1:500 in blocking buffer) for 1 hour on ice. The wells were washed once with blocking buffer and the cells were gently scraped to run flow cytometer. Green (FITC) and Red2 (Alexa fluorophore with λem=667 nm) fluorescence were read to confirm trast-cHBL binding. Trastuzumab without any ligands and trastuzumab—FITC conjugate were used as positive controls and the cells with Alexa Flour 647-conjugated secondary antibody and without trastuzumab were used as negative controls.

Compound: O=C(O)Cc1ccc2ccccc2c1 [2-naphteleneacetic acid]
- Kd [1]: 1800 ± 300 nM
- Kd ([1]; listed as 2-naphthaleneacetic acid): 2000 nM

Compound: Dansyl
- Kd (IgE^dansyl): 29.9 ± 10 nM

Compound: LLGPYELWELSH [Trastuzumab binding peptide, reference compound]
- Kd (trastuzumab [2]): 200 ± 14 nM

Compound: Rituximab-cHBL: orthogonal cHBL with rituximab binding peptide WPRWLEN
- binding to trastuzumab (direct ELISA) (trastuzumab [3]): not selective to trastuzumab up to 20 μM

Compound: Trast-DNP: trastuzumab binding peptide tagged with DNP (LLGPYELWELSH; also: tagged with DNP)
- Kd (trastuzumab [2]): 200 ± 14 nM

Compound: Trast-ITC: trast-cHBL molecule where the napht moiety was omitted (LLGPYELWELSH)
- antibody chain conjugated (trastuzumab [4]): conjugated nearly equally to either heavy (50 kDa) or light chain

Compound: Trast-Napht-DNP: trastuzumab binding peptide conjugated to napht with ethylene glycol spacer, DNP tagged (LLGPYELWELSH; also: conjugated to napht with ethylene glycol spacer, DNP tagged)
- Kd (trastuzumab [2]): 46 ± 6 nM
- Kd (trastuzumab [2]; listed as Trast-napht-DNP): 46.6 ± 6 nM
- fold increase in observed affinity on conjugation to napht (trastuzumab [2]; napht with ethylene glycol spacer): over 4 fold

Compound: Trast-cHBL: trastuzumab-specific cHBL with peptide LLGPYELWELSH, napht, ITC and fluorescein tag (not fully specified; also: cHBL with napht, ITC and fluorescein tag)
- antibody chain conjugated (trastuzumab [4]): preferentially conjugated to light chain
- naphthalene-biotin binding after cHBL incubation (NBS of trastuzumab): significantly less naphthalene binding
- cHBL concentration at which FITC signal saturates [5]: 2 µM
- FITC signal, percent of maximum ([5]; 1 μM cHBL): approximately 50%
- HER2 binding (Alexa 647 signal) ([5]; 1 μM cHBL): no significant reduction in HER2 binding
- HER2 binding retained (Alexa 647 signal) ([5]; 2 μM cHBL): approximately 75%
- HER2 binding (Alexa 647 signal) ([5]; 10 μM cHBL): HER2 binding drops drastically
- binding to trastuzumab (direct ELISA) (trastuzumab [3]): significant increase in binding over trastuzumab-ITC at 1 μM
